# Assay results as given in US12059464B2, “Combination therapy involving antibodies against Claudin 18.2 for treatment of cancer” (Astellas Pharma Inc., priority 2012, dated 2024).
# Columns and labels:
# KatoIII cells [1] = test: Cell cycle analysis and CLDN18.2 surface expression of KatoIII cells cultivated with cytostatic compounds; settings: for cell cycle arrest (phase of the cell cycle): KatoIII cells cultivated with cytostatic compound, DNA content by flow cytometry; for CLDN18.2 expression: KatoIII cells, cultivation for 96 hours
# Method: Epirubicin (Pfizer) was tested at a concentration of 10 or 100 ng/ml, 5-FU (Neofluor from NeoCorp AG) was tested at a concentration of 10 or 100 ng/ml, and oxaliplatin (Hospira) was tested at a concentration of 50 or 500 ng/ml.
# As secondary reagent goat-anti-huIgG-APC from Dianova was used.
# Cell cycle stages were determined based on measurement of cellular DNA content. […] Cell cycle analysis was done using the CycleTEST PLUS DNA Reagent Kit from BD Biosciences following the manufacturer's protocol. Flow cytometry acquisition and analysis were performed by using BD FACS CantoII (BD Biosciences) and FlowJo (Tree Star) software.
# KatoIII cells [2] = test: IMAB362-induced ADCC (luciferase) on KatoIII cells pretreated with Irinotecan, Docetaxel or Cisplatin; type: cell-based, human; settings: KatoIII pretreated for 3 days; for level of viable cells compared to medium cultivated target cells: Irinotecan 1000 ng/ml, Docetaxel 5 ng/ml, Cisplatin 2000 ng/ml; for effect of pretreatment on potency of IMAB362 to induce ADCC: human PBMC effectors
# Method: Peripheral blood mononuclear cells (PBMCs) including NK cells, monocytes, mononuclear cells or other effector cells from healthy human donors were purified by Ficoll Hypaque density centrifugation. Washed effector cells were seeded in X-Vivo medium. KatoIII cells which express CLDN18.2 endogenously and are of gastric origin were used as target cells in this setting. Target cells stably expressed luciferase, lucifer yellow, which is oxidized by viable cells only.
# KatoIII cells [3] = test: KatoIII cells pretreated with Irinotecan or Docetaxel: cell growth and cell cycle arrest; type: cell-based, human; settings: KatoIII cells pretreated for 4 days
# Method: Cell cycle stages were determined based on measurement of cellular DNA content. This allows one to discriminate between cells in the G1-, S- or G2-phase of the cell cycle. In the S-phase DNA duplication occurs whereas in the G2-phase cells grow and prepare for mitosis. Cell cycle analysis was done using the CycleTEST PLUS DNA Reagent Kit from BD Biosciences following the manufacturer's protocol. Flow cytometry acquisition and analysis were performed by using BD FACS CantoII (BD Biosciences) and FlowJo (Tree Star) software.
# KatoIII cells were pretreated for 4 days with Irinotecan or Docetaxel and analysed for CLDN18.2 expression and cell cycle arrest.
# NUGC-4 cells = type: cell-based, human
# Method: (§1) Furthermore, human stomach cancer cells (NUGC-4-luciferase) and murine stomach cancer cells (CLS103-calcein stained) were pretreated with or w/o 5 μM ZA for 2 days. Human Vγ9Vδ2 T cells were MACS purified (day 14) and co-cultured with the cancer cells for 24 h. Cytotoxicity of Vγ9Vδ2 T cells towards non-treated and ZA-treated target cells was determined by measuring remaining luciferase activity or calcein fluorescence; cf. FIG. 11b. Target cells (NUGC-4 and CLS103) were pretreated with or w/o 5 μM ZA for 2 days and subsequently incubated for 4 h with mitomycin c ([…]) to stop proliferation. MACS purified human 14d old resting Vγ9Vδ2 T cells and ^3H-thymidine were added to the target cells and co-cultures were incubated for 48 h at 37° C. Proliferation was determined by measuring ^3H thymidine incorporation in the DNA using a MicroBeta scintillation counter. Proliferation of target cells not treated with ZA and w/o Vγ9Vδ2 T cells was set to 100%; cf. FIG. 11c.
# Vγ9Vδ2 T cells = test: Enrichment of Vγ9Vδ2 T cells in co-culture with monocytes ± ZA; type: cell-based, human; settings: co-cultures 14 days, ±1 μM ZA
# Method: The enrichment of Vγ9Vδ2 T cells in the co-cultures after 14 days was determined by multicolor FACS, whereas the expansion of the culture was considered in the calculation. The enrichment factor of Vγ9Vδ2 T cells cultured with monocytes in a 1:4 ratio was set to 100% for each experiment. […] This effect was clearly ZA-dependent; cf. FIG. 11a.
# PBMCs = test: Expansion of PBMC cultures with ZA/IL-2; type: cell-based, human; settings: 14 days, 300 U/ml IL-2
# Method: PBMCs were harvested from healthy human donors and cultures were treated with a single dose of ZA. […] FIG. 8a. […] FIG. 8b. Increase in cell numbers was determined by counting living cells on day 6, 8, 11 and 14.
# CLS103 cells = system: CLS103 cells
# Method: as §1
# [4] = system: HEK293~CLDN18.2 transfectants; test: Early treatment of HEK293~CLDN18.2 tumor xenografts; type: in vivo, nude mice; settings: isotype control, 200 μg twice per week for 6 weeks
# Text: Moreover, advanced tumor treatment experiments were initiated up to 9 days after tumor cell inoculation when tumors had reached volumes of about 60-120 mm^3.
# Nude mice were subcutaneously inoculated with 1×10^7 HEK293˜CLDN18.2 transfectants. Treatment of 10 mice per group started 3 days after tumor inoculation. […] Not only time to death was prolonged, but 4 of 10 mice survived the entire observation period of 210 days.
# NUGC-4 xenografts = test: In vivo tumor targeting of Dyelight 680-labeled antibodies (fluorescence imaging); design: species or system nude mice; settings: time not stated
Compound,cell cycle arrest (phase of the cell cycle) (KatoIII cells [1]),claudin18.2 expression compared to medium cultivated cells (KatoIII cells [2]),level of viable cells compared to medium cultivated target cells (KatoIII cells [2]),effect of pretreatment on potency of IMAB362 to induce ADCC (KatoIII cells [2]),further results
"O=c1[nH]cc(F)c(=O)[nH]1 [5-FU, 5-fluoro-1H-pyrimidine-2,4-dione]",blocked predominantly in the S-phase,,,,CLDN18.2 expression (KatoIII cells [1]): stabilize CLDN18.2-expression
"N.N.[Cl][Pt][Cl] [Cisplatin, cis-diamminedichloroplatinum(II)]",,increased,lower level of viable cells,augmented the potency of IMAB362 to induce ADCC,
"CC(=O)O[C@@]12CO[C@@H]1C[C@H](O)[C@@]1(C)C(=O)[C@H](O)C3=C(C)[C@@H](OC(=O)[C@H](O)[C@@H](NC(=O)OC(C)(C)C)c4ccccc4)C[C@@](O)([C@@H](OC(=O)c4ccccc4)[C@H]21)C3(C)C [Docetaxel, docetaxel]",,increased,lower level of viable cells,augmented the potency of IMAB362 to induce ADCC,cell cycle arrest (phase) (KatoIII cells [3]): cell cycle arrest in the G2-phase; inhibition of cell growth (KatoIII cells [3]): dose dependent inhibition of cell growth
COc1cccc2c1C(=O)c1c(O)c3c(c(O)c1C2=O)C[C@@](O)(C(=O)CO)C[C@@H]3O[C@H]1C[C@H](N)[C@@H](O)[C@H](C)O1 [Epirubicin],cell cycle arrest predominantly in the G2-phase,,,,CLDN18.2 expression (KatoIII cells [1]): stabilize CLDN18.2-expression
"CCc1c2c(nc3ccc(OC(=O)N4CCC(N5CCCCC5)CC4)cc13)-c1cc3c(c(=O)n1C2)COC(=O)[C@]3(O)CC [Irinotecan, (S)-4,11-diethyl-3,4,12,14-tetrahydro-4-hydroxy-3,14-dioxo1H-pyrano[3′,4′:6,7]-indolizino[1,2-b]quinolin-9-yl-[1,4′bipiperidine]-1′-carboxylate]",,increased,lower level of viable cells,augmented the potency of IMAB362 to induce ADCC,cell cycle arrest (phase) (KatoIII cells [3]): cell cycle arrest in the S/G2-phase; inhibition of cell growth (KatoIII cells [3]): dose dependent inhibition of cell growth
"O=C1[O][Pt]2([NH][C@@H]3CCCC[C@H]3[NH]2)[O]C1=O [Oxaliplatin, [(1R,2R)-cyclohexane-1,2-diamine](ethanedioato-O,O′)platinum(II)]",enrichment of cells predominantly in the G1- and G2-phases,,,,
"O=P(O)(O)C(O)(Cn1ccnc1)P(=O)(O)O [ZA, [1-hydroxy-2-(1H-imidazol-1-yl)ethane-1,1-diyl]bis(phosphonic acid)]",,,,,activation of Vγ9Vδ2 T cell cytotoxicity by ZA-pulsed cancer cells (NUGC-4 cells): 5-10 fold; enrichment of Vγ9Vδ2 T cells with increase of monocytes in the culture (ZA-dependent) (Vγ9Vδ2 T cells): more than 10 fold; lower expansion of cells in medium without ZA versus with ZA (PBMCs): about 2 fold; activation of Vγ9Vδ2 T cells (cytotoxicity and proliferation) by ZA-pulsed cancer cells (CLS103 cells): failed to elicit these effects
infliximab: isotype control antibody [reference compound],,,,,time within which all mice died [4]: 70 to 80 days
rituximab: Dyelight 680-labeled negative control antibody (NUGC-4 negative for CD20) [reference compound],,,,,"signal of labeled antibody (negative control, NUGC-4 negative for CD20) (NUGC-4 xenografts): No signal is detected"
